The source of these data is ChEMBL document CHEMBL5465560, “Selectivity Literature for EUbOPEN Chemogenomic Library” (2024).

Experiment [1] has as its target Non-receptor tyrosine-protein kinase TYK2 (Homo sapiens, UniProt P29597). The experiment is described as follows: Selectivity interaction (Ambit KINOMEscan and KiNATiv profiling in Jurkat cells) EUB0000090b TYK2. The class given is cell-based. Conditions: at 1 µM.
The target in experiment [2] is T1, Myosin-IIIb (Homo sapiens) (UniProt Q8WXR4).
T1 sequence (whole entry): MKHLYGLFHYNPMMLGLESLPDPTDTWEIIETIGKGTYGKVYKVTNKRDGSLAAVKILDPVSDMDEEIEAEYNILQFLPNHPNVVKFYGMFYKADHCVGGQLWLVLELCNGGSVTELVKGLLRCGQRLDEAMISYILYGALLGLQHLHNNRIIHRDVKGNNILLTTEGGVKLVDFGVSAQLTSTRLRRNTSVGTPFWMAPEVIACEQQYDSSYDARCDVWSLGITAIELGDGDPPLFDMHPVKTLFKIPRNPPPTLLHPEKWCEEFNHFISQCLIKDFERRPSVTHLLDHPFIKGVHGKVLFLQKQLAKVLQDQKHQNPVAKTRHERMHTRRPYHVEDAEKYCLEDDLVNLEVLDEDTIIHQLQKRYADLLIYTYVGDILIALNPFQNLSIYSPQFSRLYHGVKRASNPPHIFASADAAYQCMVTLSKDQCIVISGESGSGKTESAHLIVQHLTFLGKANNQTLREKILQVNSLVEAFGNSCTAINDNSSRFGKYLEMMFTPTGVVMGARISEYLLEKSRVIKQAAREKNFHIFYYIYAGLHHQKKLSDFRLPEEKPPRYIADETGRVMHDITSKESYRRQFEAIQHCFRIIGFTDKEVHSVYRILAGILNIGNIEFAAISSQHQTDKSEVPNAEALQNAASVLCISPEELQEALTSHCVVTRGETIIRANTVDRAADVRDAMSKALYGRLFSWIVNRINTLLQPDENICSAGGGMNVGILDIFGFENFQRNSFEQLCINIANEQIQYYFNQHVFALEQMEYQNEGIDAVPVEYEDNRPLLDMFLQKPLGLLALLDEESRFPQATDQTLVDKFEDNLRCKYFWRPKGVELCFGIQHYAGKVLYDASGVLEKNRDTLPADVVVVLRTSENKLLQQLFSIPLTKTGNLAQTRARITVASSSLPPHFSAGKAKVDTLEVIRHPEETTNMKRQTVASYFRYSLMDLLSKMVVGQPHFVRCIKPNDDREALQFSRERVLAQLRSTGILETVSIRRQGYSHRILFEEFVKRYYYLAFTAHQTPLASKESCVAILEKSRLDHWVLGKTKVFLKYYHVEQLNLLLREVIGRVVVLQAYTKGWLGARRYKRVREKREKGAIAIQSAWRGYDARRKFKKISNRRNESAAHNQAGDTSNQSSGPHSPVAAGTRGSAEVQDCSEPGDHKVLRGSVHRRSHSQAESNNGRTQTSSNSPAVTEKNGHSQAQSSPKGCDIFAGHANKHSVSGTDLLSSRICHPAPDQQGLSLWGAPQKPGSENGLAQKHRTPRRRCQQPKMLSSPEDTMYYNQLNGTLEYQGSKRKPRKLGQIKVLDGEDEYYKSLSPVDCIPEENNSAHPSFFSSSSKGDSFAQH
As to the kind of experiment: Selectivity interaction (KinomeScan (DiscoverX)) EUB0000607a MYO3B. To be noted: at 10 µM.

Experiment [3] deals with Epidermal growth factor receptor (Homo sapiens), P00533 [UNDEFINED MUTATION]. To be noted: at 10 µM.
Sequence of Epidermal growth factor receptor (Homo sapiens), P00533 [UNDEFINED MUTATION] (P00533 whole entry, looked up, change not shown): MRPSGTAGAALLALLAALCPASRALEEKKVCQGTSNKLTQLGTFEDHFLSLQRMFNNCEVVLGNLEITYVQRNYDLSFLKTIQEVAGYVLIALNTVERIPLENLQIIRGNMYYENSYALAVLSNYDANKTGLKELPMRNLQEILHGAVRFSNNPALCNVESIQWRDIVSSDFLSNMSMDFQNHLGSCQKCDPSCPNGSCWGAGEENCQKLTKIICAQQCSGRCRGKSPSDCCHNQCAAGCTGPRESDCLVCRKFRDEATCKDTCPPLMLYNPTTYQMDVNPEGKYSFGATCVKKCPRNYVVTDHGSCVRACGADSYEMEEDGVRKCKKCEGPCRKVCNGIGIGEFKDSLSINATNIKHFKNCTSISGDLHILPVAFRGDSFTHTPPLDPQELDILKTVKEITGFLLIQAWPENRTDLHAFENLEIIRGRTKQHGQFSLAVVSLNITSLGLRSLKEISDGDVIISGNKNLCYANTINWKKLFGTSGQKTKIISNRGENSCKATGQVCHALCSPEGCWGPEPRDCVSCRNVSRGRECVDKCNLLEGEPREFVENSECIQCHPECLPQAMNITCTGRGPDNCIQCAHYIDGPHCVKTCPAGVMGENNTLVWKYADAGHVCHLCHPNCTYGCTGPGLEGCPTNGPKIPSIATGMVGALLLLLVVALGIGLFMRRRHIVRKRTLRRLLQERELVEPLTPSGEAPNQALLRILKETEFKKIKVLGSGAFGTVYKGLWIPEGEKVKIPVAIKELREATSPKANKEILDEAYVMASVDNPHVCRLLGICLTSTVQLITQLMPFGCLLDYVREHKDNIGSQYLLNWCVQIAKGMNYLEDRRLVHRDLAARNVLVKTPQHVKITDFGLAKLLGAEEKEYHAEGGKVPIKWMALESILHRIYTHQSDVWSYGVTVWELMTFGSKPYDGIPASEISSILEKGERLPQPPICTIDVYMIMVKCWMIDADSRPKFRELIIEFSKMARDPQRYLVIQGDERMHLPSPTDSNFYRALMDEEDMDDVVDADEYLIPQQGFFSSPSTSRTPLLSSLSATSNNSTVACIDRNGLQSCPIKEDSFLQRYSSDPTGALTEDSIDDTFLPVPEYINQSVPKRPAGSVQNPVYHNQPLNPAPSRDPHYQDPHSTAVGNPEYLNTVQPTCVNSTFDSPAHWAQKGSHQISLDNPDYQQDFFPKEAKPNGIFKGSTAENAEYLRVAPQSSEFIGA
Experiment [4] concerns the target Serine/threonine-protein kinase tousled-like 2 (Homo sapiens) (UniProt Q86UE8). The experiment is described as follows: Selectivity interaction (KinomeScan (DiscoverX)) EUB0000655a TLK2. Conditions: at 10 µM.
For experiment [5], the target named is Rho-associated protein kinase 1 (Homo sapiens) (UniProt Q13464). As to the kind of experiment: Selectivity interaction (KinomeScan (DiscoverX)) EUB0001619a ROCK1. To be noted: at 1 µM.
The target in experiment [6] is Platelet-derived growth factor receptor beta (Homo sapiens, UniProt P09619). As to the kind of experiment: Selectivity interaction (Kinase panel (Invitrogen)) EUB0000639a PDGFRB. Conditions: at 200 nM.
Experiment [7] concerns the target 5'-AMP-activated protein kinase catalytic subunit alpha-2 (Homo sapiens) (UniProt P54646). The experiment is described as follows: Selectivity interaction (ActivX KiNativ screen (kinase selectivity in THP-1 cell lysates)) EUB0000639a PRKAA2. The class given is subcellular. Conditions: lysate, at 1 µM.
Experiment [8] relates to Mast/stem cell growth factor receptor Kit (Homo sapiens), P10721 [L576P]. The experiment is described as follows: (§1) Selectivity interaction (KinomeScan (DiscoverX)) EUB0000092b KIT. To be noted: at 10 µM.
Sequence of Mast/stem cell growth factor receptor Kit (Homo sapiens), P10721 [L576P] (P10721 whole entry L576P): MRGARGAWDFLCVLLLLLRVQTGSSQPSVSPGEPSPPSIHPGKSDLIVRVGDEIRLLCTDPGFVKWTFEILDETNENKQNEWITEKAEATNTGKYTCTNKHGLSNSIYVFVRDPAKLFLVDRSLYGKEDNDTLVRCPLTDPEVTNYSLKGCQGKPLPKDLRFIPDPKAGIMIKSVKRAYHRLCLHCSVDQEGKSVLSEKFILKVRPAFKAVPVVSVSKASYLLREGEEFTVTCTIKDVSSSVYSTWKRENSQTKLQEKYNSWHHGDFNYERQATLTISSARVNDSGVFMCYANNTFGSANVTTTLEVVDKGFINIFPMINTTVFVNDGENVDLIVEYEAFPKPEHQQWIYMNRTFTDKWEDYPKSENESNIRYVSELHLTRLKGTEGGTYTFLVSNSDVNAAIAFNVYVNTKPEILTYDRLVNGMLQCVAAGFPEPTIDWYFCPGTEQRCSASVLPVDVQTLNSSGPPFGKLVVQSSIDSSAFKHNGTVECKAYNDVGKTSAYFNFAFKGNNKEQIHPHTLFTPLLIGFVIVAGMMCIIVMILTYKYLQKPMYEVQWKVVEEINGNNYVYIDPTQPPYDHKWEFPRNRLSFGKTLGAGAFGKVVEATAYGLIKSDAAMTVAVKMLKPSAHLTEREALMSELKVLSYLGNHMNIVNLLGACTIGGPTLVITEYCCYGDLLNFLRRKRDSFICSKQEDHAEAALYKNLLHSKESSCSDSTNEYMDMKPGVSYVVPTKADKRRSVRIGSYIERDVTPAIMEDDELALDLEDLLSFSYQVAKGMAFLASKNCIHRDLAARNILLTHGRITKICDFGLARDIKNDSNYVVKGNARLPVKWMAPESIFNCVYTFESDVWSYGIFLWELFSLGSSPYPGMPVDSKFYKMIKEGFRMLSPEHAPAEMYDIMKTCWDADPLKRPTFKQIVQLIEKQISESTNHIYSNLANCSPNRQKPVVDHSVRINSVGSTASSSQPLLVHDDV
For experiment [9], the system named is Mast/stem cell growth factor receptor Kit (Homo sapiens), P10721 [V559D]. Described as §1. To be noted: at 10 µM.
Sequence of Mast/stem cell growth factor receptor Kit (Homo sapiens), P10721 [V559D] (P10721 whole entry V559D): as the sequence (P10721 whole entry L576P) above, with V559D, P576L counted along it
For experiment [10], the target named is Tyrosine-protein kinase receptor Tie-1 (Homo sapiens) (UniProt P35590). The experiment is described as follows: Selectivity interaction (KinomeScan (DiscoverX)) EUB0001868a TIE1. To be noted: at 1 µM.
Sequence of Tyrosine-protein kinase receptor Tie-1 (Homo sapiens) (P35590 whole entry): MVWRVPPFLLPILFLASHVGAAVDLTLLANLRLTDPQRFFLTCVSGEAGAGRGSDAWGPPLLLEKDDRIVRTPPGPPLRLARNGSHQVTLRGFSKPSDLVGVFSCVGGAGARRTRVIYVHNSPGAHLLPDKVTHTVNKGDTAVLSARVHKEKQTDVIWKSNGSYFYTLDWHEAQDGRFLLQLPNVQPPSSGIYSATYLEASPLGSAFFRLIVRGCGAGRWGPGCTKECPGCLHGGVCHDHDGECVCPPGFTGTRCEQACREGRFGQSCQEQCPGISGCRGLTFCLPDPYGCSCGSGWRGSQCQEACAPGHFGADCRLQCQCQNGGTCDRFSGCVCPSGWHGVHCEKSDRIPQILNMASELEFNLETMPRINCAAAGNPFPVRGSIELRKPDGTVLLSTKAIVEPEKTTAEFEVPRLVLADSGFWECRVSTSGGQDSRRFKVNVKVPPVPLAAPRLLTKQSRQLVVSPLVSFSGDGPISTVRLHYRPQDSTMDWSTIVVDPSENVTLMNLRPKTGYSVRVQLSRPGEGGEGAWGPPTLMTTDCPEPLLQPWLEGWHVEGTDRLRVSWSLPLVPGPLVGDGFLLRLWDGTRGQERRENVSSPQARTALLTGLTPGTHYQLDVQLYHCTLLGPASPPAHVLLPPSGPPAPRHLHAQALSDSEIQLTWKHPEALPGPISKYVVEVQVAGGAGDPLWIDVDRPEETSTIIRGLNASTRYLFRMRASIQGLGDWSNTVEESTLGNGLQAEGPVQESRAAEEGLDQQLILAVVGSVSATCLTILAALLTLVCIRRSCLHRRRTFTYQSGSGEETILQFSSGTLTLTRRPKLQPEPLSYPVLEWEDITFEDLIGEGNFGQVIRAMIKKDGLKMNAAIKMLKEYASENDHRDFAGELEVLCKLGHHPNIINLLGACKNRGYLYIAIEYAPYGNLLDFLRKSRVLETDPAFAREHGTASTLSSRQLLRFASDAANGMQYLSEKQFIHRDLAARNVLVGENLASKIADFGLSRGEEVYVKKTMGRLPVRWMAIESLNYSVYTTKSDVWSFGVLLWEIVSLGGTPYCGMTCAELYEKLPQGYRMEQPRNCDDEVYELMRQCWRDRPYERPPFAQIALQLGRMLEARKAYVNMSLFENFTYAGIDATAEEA
The target in experiment [11] is T2, Myosin light chain kinase family member 4 (Homo sapiens) (UniProt Q86YV6).
T2 sequence (whole entry): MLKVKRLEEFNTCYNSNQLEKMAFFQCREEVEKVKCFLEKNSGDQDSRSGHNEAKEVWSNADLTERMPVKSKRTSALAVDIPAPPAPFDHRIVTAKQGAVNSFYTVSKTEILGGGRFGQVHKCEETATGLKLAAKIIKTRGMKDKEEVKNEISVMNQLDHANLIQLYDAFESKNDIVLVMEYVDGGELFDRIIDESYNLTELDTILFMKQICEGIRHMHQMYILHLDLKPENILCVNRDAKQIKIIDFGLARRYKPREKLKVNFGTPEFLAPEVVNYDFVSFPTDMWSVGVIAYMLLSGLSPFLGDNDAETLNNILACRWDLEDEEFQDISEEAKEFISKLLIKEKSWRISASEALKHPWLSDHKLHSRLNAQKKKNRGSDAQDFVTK
The experiment is described as follows: Selectivity interaction (KinomeScan (DiscoverX)) EUB0000618a MYLK4. Conditions: at 10 µM.

Experiment [12] deals with Maternal embryonic leucine zipper kinase (Homo sapiens) (UniProt Q14680). As to the kind of experiment: Selectivity interaction (Upstate Kinase Profiler service (Millipore)) EUB0000056c MELK. To be noted: at 1 µM.
Sequence of Maternal embryonic leucine zipper kinase (Homo sapiens) (Q14680 whole entry, looked up): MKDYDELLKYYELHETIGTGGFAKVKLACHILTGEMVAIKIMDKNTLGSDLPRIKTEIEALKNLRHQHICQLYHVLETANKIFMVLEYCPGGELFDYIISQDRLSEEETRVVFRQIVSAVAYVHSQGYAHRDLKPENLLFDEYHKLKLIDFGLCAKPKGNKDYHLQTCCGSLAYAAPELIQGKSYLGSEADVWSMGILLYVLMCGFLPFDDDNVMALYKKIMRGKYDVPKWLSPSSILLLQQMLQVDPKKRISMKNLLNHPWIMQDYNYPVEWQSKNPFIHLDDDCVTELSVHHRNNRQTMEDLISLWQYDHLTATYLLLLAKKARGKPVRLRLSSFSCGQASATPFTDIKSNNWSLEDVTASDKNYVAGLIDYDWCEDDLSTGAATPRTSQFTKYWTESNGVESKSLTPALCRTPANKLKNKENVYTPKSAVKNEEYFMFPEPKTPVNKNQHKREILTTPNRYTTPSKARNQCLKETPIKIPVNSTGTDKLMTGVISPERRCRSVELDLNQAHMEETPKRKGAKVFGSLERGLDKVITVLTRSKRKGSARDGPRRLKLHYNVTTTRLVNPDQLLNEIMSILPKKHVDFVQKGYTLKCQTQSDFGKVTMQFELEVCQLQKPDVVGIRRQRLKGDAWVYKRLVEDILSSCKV

Sequence of Serine/threonine-protein kinase tousled-like 2 (Homo sapiens) (Q86UE8 whole entry, looked up): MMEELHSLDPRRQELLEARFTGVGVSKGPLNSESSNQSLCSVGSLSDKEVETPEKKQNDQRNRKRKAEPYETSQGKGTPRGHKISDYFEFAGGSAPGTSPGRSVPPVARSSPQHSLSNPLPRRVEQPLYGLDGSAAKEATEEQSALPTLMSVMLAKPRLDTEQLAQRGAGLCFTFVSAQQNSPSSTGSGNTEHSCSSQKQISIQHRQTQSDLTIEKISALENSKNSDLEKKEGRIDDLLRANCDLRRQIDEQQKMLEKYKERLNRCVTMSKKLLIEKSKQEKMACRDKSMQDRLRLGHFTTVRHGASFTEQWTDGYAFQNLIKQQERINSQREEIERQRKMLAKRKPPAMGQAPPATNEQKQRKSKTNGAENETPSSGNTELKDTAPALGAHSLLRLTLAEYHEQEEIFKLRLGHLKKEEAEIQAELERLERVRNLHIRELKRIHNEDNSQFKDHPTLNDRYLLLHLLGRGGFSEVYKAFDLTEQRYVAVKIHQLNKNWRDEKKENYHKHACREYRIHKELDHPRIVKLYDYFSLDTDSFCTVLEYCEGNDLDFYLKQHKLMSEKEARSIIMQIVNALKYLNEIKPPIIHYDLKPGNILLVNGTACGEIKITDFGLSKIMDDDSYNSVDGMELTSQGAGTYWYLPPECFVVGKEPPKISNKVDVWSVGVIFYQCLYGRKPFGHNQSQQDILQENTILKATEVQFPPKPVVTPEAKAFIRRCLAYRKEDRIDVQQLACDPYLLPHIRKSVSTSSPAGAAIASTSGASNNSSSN

On to `CN(C)C/C=C/C(=O)Nc1ccc(C(=O)N2CCCC(Nc3ncc(Cl)c(-c4c[nH]c5ccccc45)n3)C2)cc1` (configuration not stated), for which the % of control in experiment [1] was determined as 99%.
With `CNC(=O)Nc1ccc(-c2nc(N3CC4CCC(C3)O4)c3cnn(C4CCC5(CC4)OCCO5)c3n2)cc1`, the % of control in [2] is 91%.
`Cc1cc([C@@H](C)Nc2ccccc2C(=O)O)c2nc(N3CCOCC3)cc(=O)n2c1` [AZD-6482] came in with a % of control in experiment [3] of 100%.
Turning to `CN(C)CCOc1ccc(-c2nc(-c3ccncc3)c(-c3ccc4c(c3)CC/C4=N\O)[nH]2)cc1`, in experiment [4], the % of control was 86%.
For `N#Cc1cccc(-c2c[nH]c3ncnc(N4CCOCC4)c23)c1`, the % of control in experiment [5] amounted to 85%.
Turning to `CC[C@@H]1[C@H](F)C(=O)N[C@@H]1COc1nccc2cc(C(N)=O)c(OC)cc12` [ZIMLOVISERTIB], the % of inhibition is -2.22% in experiment [6] and -4.6% in [7].
Take `CCC(=O)N1CCN(c2ccc(-n3c(=O)ccc4cnc5ccc(-c6cnc7ccccc7c6)cc5c43)cc2C(F)(F)F)CC1`: the % of control amounted to 48% in [8] and 50% in experiment [9].
`Cc1cc(-c2ccnc(Nc3cnn(C)c3)n2)ccc1CNC(=O)N1CC(OC(C)C)C1` gave a % of control in experiment [10] of 46%.
Compound `O[C@H]1CC[C@H](Nc2ncc3nc(Nc4c(F)cc(F)cc4F)n([C@H]4CCOC4)c3n2)CC1` registered a % of control in experiment [11] of 100%.
For `Cc1ccc(-c2ccc3c(ccc4sc5c(c43)NC[C@@H](C)NC5=O)n2)cn1`, the % of inhibition in experiment [12] stood at 10%.
